# Patent US11471502B2, “Neuroprotective peptide” (UNIVERSITY COLLEGE CARDIFF C[…], priority 2017, dated 2022)
# Entries after “also recorded” stand apart in the source; their conditions may differ.
# Tested on: Tg2576 mice
# Assay: Tg2576 mouse model of Alzheimer's Disease, neuroprotection
# Type: in vivo
# Details: 20 mg/kg i.p., 7 days
# Protocol: Two-way ANOVA Bonferroni post-hoc comparison **p<0.01***p<0.001.
# The genetic model of Alzheimer's Disease Tg2576 and their WT controls have been treated for 7 days with RB5/scramble peptide (20 mg/kg, i.p).
smiles,measurement,value
CSCC[C@H](NC(=O)[C@H](CCC(=O)O)NC(=O)[C@@H](NC(=O)[C@H](CCC(=O)O)NC(=O)CNC(=O)[C@@H]1CCCN1C(=O)[C@@H](NC(=O)CNC(=O)[C@@H]1CCCN1C(=O)CNC(=O)[C@@H](NC(=O)CNC(=O)[C@H](CCC(=O)O)NC(=O)[C@@H](NC(=O)[C@H](CCCNC(=N)N)NC(=O)[C@H](CCCNC(=N)N)NC(=O)[C@@H]1CCCN1C(=O)[C@H](CCC(=O)O)NC(=O)CNC(=O)CNC(=O)CNC(=O)CNC(=O)CNC(=O)[C@H](CCC(N)=O)NC(=O)[C@@H]1CCCN1C(=O)[C@@H]1CCCN1C(=O)[C@H](CCCNC(=N)N)NC(=O)[C@H](CCCNC(=N)N)NC(=O)[C@H](CCCNC(=N)N)NC(=O)[C@H](CCC(N)=O)NC(=O)[C@H](CCCNC(=N)N)NC(=O)[C@H](CCCNC(=N)N)NC(=O)[C@H](CCCCN)NC(=O)[C@H](CCCCN)NC(=O)[C@H](CCCNC(=N)N)NC(=O)CNC(C)=O)[C@@H](C)O)C(C)C)C(C)C)C(C)C)C(=O)N[C@H](C(=O)N[C@@H](CCCCN)C(=O)NCC(=O)N[C@@H](CCC(N)=O)C(=O)N1CCC[C@H]1C(=O)N[C@@H](Cc1ccccc1)C(=O)N[C@@H](CC(=O)O)C(=O)N[C@@H](C(=O)O)C(C)C)C(C)C [RB5],ERK activation (pERK) in hippocampal CA1 and Dentate Gyrus,increased pERK; also recorded: significant enhancement of ERK activation
same,pre-apoptotic state (Cleaved Caspase-3 staining),reduced the levels of cleaved caspase-3 staining; also recorded: significant reduction of the pre-apoptotic state
